{"source": "patent US6376426B1", "about": "“Herbicidal 3-(heterocycl-1-yl)-uracils” (BASF Aktiengesellschaft, priority 1999, dated 2002)", "format_in_all_cases": "in vivo", "key": {"[1]": {"tested_on": "Zea mays", "assay": "Pre-emergence herbicidal test, ZEAMX", "conditions": "PRE, 21 days after spraying", "experimental": "(§1) To evaluate their herbicidal activity, compounds according to the invention are tested using a representative range of plants:\n(§2) The pre-emergence tests involve spraying a liquid formulation of the compound onto the soil in which the seeds of the plant species mentioned above has recently been sown.\n(§3) The soil used in the tests is a prepared horticultural loam. The formulations used in the tests are prepared from solutions of the test compounds in acetone containing 0.4% by weight of an alkylphenol/ethylene oxide condensate available under the trade mark TRITON X-155. […] In these tests untreated sown soil are used as controls.\n(§4) The herbicidal effects of the test compounds are assessed visually twenty-one days after spraying the foliage and the soil and are recorded on a 0-9 scale. A rating 0 indicates growth as untreated control, a rating 9 indicates death. An increase of 1 unit on the linear scale approximates to a 10% increase in the level of effect."}, "[2]": {"tested_on": "Galium aparine", "assay": "Pre-emergence herbicidal test, GALAP", "parameters": "key to herbicidal effect (0-9 scale) GALAP / herbicidal rating GALAP: A rating 0 indicates growth as untreated control; a rating 9 indicates death", "conditions": "PRE, 21 days after spraying", "experimental": "as §1, §2, §3, §4"}, "[3]": {"tested_on": "Triticum aestivum", "assay": "Pre-emergence herbicidal test, TRZAW", "conditions": "21 days after spraying", "experimental": "as §1, §2, §3, §4"}, "[4]": {"tested_on": "Galium aparine", "assay": "Post-emergence herbicidal test, GALAP", "parameters": "key to herbicidal effect (0-9 scale) GALAP / herbicidal rating GALAP: A rating 0 indicates growth as untreated control; a rating 9 indicates death", "conditions": "POST, 21 days after spraying", "experimental": "as §1\n(§5) […] After spraying, the plants are placed on greenhouse benches and are cared for in the usual manner, commensurate with conventional greenhouse practices.\nas §4"}, "[5]": {"tested_on": "Setaria viridis", "assay": "Post-emergence herbicidal test, SETVI", "parameters": "key to herbicidal effect (0-9 scale) SETVI / herbicidal rating SETVI: A rating 0 indicates growth as untreated control; a rating 9 indicates death", "conditions": "POST, 21 days after spraying", "experimental": "as §1, §5, §4"}, "[6]": {"tested_on": "Hordeum vulgare", "assay": "Post-emergence herbicidal test, HORVW", "conditions": "21 days after spraying", "experimental": "as §1\nThese acetone solutions are diluted with water and the resulting formulations applied at dosage levels equivalent to about 1000, 800, 400, 250 or 100 g/ha per hectare of test compound per pot. After spraying, the plants are placed on greenhouse benches and are cared for in the usual manner, commensurate with conventional greenhouse practices.\nas §4"}, "[7]": {"tested_on": "Matricaria inodora", "assay": "Post-emergence herbicidal test, MATIN", "parameters": "key to herbicidal effect (0-9 scale) MATIN / herbicidal rating MATIN: A rating 0 indicates growth as untreated control; a rating 9 indicates death", "conditions": "POST, 21 days after spraying", "experimental": "as §1, §5, §4"}, "[8]": {"tested_on": "Abutilon theophrasti", "assay": "Pre-emergence herbicidal test, ABUTH", "parameters": "key to herbicidal effect (0-9 scale) ABUTH / herbicidal rating ABUTH: A rating 0 indicates growth as untreated control; a rating 9 indicates death", "conditions": "PRE, 21 days after spraying", "experimental": "as §1, §2, §3, §4"}, "[9]": {"tested_on": "Hordeum vulgare", "assay": "Pre-emergence herbicidal test, HORVW", "conditions": "21 days after spraying", "experimental": "as §1, §2, §3, §4"}, "[10]": {"tested_on": "Ipomoea hederacea", "assay": "Pre-emergence herbicidal test, IPOHE", "conditions": "21 days after spraying", "experimental": "as §1, §2, §3, §4"}, "[11]": {"tested_on": "Glycine max", "assay": "Post-emergence herbicidal test, GLXMA", "conditions": "21 days after spraying", "experimental": "as §1, §5, §4"}, "[12]": {"tested_on": "Echinochloa crus-galli", "assay": "Pre-emergence herbicidal test, ECHCG", "conditions": "21 days after spraying", "experimental": "as §1, §2, §3, §4"}, "[13]": {"tested_on": "Setaria viridis", "assay": "Pre-emergence herbicidal test, SETVI", "parameters": "key to herbicidal effect (0-9 scale) SETVI / herbicidal rating SETVI: A rating 0 indicates growth as untreated control; a rating 9 indicates death", "conditions": "PRE, 21 days after spraying", "experimental": "as §1, §2, §3, §4"}, "[14]": {"tested_on": "Ipomoea hederacea", "assay": "Post-emergence herbicidal test, IPOHE", "parameters": "key to herbicidal effect (0-9 scale) IPOHE / herbicidal rating IPOHE: A rating 0 indicates growth as untreated control; a rating 9 indicates death", "conditions": "POST, 21 days after spraying", "experimental": "as §1, §5, §4"}, "[15]": {"tested_on": "Alopecurus myosuroides", "assay": "Post-emergence herbicidal test, ALOMY", "parameters": "key: A rating 0 indicates growth as untreated control; a rating 9 indicates death", "conditions": "21 days after spraying", "experimental": "as §1, §5, §4"}, "[16]": {"tested_on": "Triticum aestivum", "assay": "Post-emergence herbicidal test, TRZAW", "conditions": "POST, 21 days after spraying", "experimental": "as §1, §5, §4"}, "[17]": {"tested_on": "Echinochloa crus-galli", "assay": "Post-emergence herbicidal test, ECHCG", "parameters": "key: A rating 0 indicates growth as untreated control; a rating 9 indicates death", "conditions": "21 days after spraying", "experimental": "as §1, §5, §4"}, "[18]": {"tested_on": "Zea mays", "assay": "Post-emergence herbicidal test, ZEAMX", "conditions": "21 days after spraying", "experimental": "as §1, §5, §4"}, "[19]": {"tested_on": "Matricaria inodora", "assay": "Pre-emergence herbicidal test, MATIN", "parameters": "key to herbicidal effect (0-9 scale) MATIN / herbicidal rating MATIN: A rating 0 indicates growth as untreated control; a rating 9 indicates death", "conditions": "PRE, 21 days after spraying", "experimental": "as §1, §2, §3, §4"}, "[20]": {"tested_on": "Glycine max", "assay": "Pre-emergence herbicidal test, GLXMA", "conditions": "PRE, 21 days after spraying", "experimental": "as §1, §2, §3, §4"}, "[21]": {"tested_on": "Stellaria media", "assay": "Pre-emergence herbicidal test, STEME", "parameters": "key to herbicidal effect (0-9 scale) STEME / herbicidal rating STEME: A rating 0 indicates growth as untreated control; a rating 9 indicates death", "conditions": "PRE, 21 days after spraying", "experimental": "as §1, §2, §3, §4"}, "[22]": {"tested_on": "Stellaria media", "assay": "Post-emergence herbicidal test, STEME", "parameters": "key to herbicidal effect (0-9 scale) STEME / herbicidal rating STEME: A rating 0 indicates growth as untreated control; a rating 9 indicates death", "conditions": "POST, 21 days after spraying", "experimental": "as §1, §5, §4"}, "[23]": {"tested_on": "Abutilon theophrasti", "assay": "Post-emergence herbicidal test, ABUTH", "parameters": "key to herbicidal effect (0-9 scale) ABUTH / herbicidal rating ABUTH: A rating 0 indicates growth as untreated control; a rating 9 indicates death", "conditions": "POST, 21 days after spraying", "experimental": "as §1, §5, §4"}}, "data": [{"smiles": "Cn1c(C(F)(F)F)cc(=O)n(-n2ccc3cc([N+](=O)[O-])ccc32)c1=O", "note": "[Example 4]", "values": [{"measurement": "herbicidal effect (0-9 scale) ZEAMX", "setting": "[1]; 400 g/ha", "value": 6}, {"measurement": "herbicidal effect (0-9 scale) ZEAMX", "setting": "[1]; 800 g/ha", "value": 8}, {"measurement": "herbicidal effect (0-9 scale) GALAP", "setting": "[2]; 400 g/ha", "value": 9}, {"measurement": "herbicidal effect (0-9 scale) GALAP", "setting": "[2]; 800 g/ha", "value": 9}, {"measurement": "herbicidal effect (0-9 scale) TRZAW", "setting": "[3]; 400 g/ha", "value": 3}, {"measurement": "herbicidal effect (0-9 scale) TRZAW", "setting": "[3]; 800 g/ha", "value": 6}, {"measurement": "herbicidal effect (0-9 scale) GALAP", "setting": "[4]; 400 g/ha", "value": 8}, {"measurement": "herbicidal effect (0-9 scale) GALAP", "setting": "[4]; 800 g/ha", "value": 9}, {"measurement": "herbicidal effect (0-9 scale) SETVI", "setting": "[5]; 400 g/ha", "value": 9}, {"measurement": "herbicidal effect (0-9 scale) SETVI", "setting": "[5]; 800 g/ha", "value": 9}, {"measurement": "herbicidal effect (0-9 scale) HORVW", "setting": "[6]; 400 g/ha", "value": 5}, {"measurement": "herbicidal effect (0-9 scale) HORVW", "setting": "[6]; 800 g/ha", "value": 6}, {"measurement": "herbicidal effect (0-9 scale) MATIN", "setting": "[7]; 400 g/ha", "value": 9}, {"measurement": "herbicidal effect (0-9 scale) MATIN", "setting": "[7]; 800 g/ha", "value": 9}, {"measurement": "herbicidal effect (0-9 scale) ABUTH", "setting": "[8]; 400 g/ha", "value": 9}, {"measurement": "herbicidal effect (0-9 scale) ABUTH", "setting": "[8]; 800 g/ha", "value": 9}, {"measurement": "herbicidal effect (0-9 scale) HORVW", "setting": "[9]; 400 g/ha", "value": 5}, {"measurement": "herbicidal effect (0-9 scale) HORVW", "setting": "[9]; 800 g/ha", "value": 7}, {"measurement": "herbicidal effect (0-9 scale) IPOHE", "setting": "[10]; 400 g/ha", "value": 7}, {"measurement": "herbicidal effect (0-9 scale) IPOHE", "setting": "[10]; 800 g/ha", "value": 8}, {"measurement": "herbicidal effect (0-9 scale) GLXMA", "setting": "[11]; 400 g/ha", "value": 8}, {"measurement": "herbicidal effect (0-9 scale) GLXMA", "setting": "[11]; 800 g/ha", "value": 8}, {"measurement": "herbicidal effect (0-9 scale) ECHCG", "setting": "[12]; 400 g/ha", "value": 8}, {"measurement": "herbicidal effect (0-9 scale) ECHCG", "setting": "[12]; 800 g/ha", "value": 8}, {"measurement": "herbicidal effect (0-9 scale) SETVI", "setting": "[13]; 400 g/ha", "value": 9}, {"measurement": "herbicidal effect (0-9 scale) SETVI", "setting": "[13]; 800 g/ha", "value": 9}, {"measurement": "herbicidal effect (0-9 scale) IPOHE", "setting": "[14]; 400 g/ha", "value": 9}, {"measurement": "herbicidal effect (0-9 scale) IPOHE", "setting": "[14]; 800 g/ha", "value": 9}, {"measurement": "herbicidal effect (0-9 scale) ALOMY", "setting": "[15]; 400 g/ha", "value": 8}, {"measurement": "herbicidal effect (0-9 scale) ALOMY", "setting": "[15]; 800 g/ha", "value": 9}, {"measurement": "herbicidal effect (0-9 scale) TRZAW", "setting": "[16]; 400 g/ha", "value": 4}, {"measurement": "herbicidal effect (0-9 scale) TRZAW", "setting": "[16]; 800 g/ha", "value": 4}, {"measurement": "herbicidal effect (0-9 scale) ECHCG", "setting": "[17]; 400 g/ha", "value": 8}, {"measurement": "herbicidal effect (0-9 scale) ECHCG", "setting": "[17]; 800 g/ha", "value": 9}, {"measurement": "herbicidal effect (0-9 scale) ZEAMX", "setting": "[18]; 400 g/ha", "value": 6}, {"measurement": "herbicidal effect (0-9 scale) ZEAMX", "setting": "[18]; 800 g/ha", "value": 8}, {"measurement": "herbicidal effect (0-9 scale) MATIN", "setting": "[19]; 400 g/ha", "value": 9}, {"measurement": "herbicidal effect (0-9 scale) MATIN", "setting": "[19]; 800 g/ha", "value": 9}, {"measurement": "herbicidal effect (0-9 scale) GLXMA", "setting": "[20]; 400 g/ha", "value": 3}, {"measurement": "herbicidal effect (0-9 scale) GLXMA", "setting": "[20]; 800 g/ha", "value": 3}, {"measurement": "herbicidal effect (0-9 scale) STEME", "setting": "[21]; 400 g/ha", "value": 9}, {"measurement": "herbicidal effect (0-9 scale) STEME", "setting": "[21]; 800 g/ha", "value": 9}, {"measurement": "herbicidal effect (0-9 scale) STEME", "setting": "[22]; 400 g/ha", "value": 9}, {"measurement": "herbicidal effect (0-9 scale) STEME", "setting": "[22]; 800 g/ha", "value": 9}, {"measurement": "herbicidal effect (0-9 scale) ABUTH", "setting": "[23]; 400 g/ha", "value": 9}, {"measurement": "herbicidal effect (0-9 scale) ABUTH", "setting": "[23]; 800 g/ha", "value": 9}]}]}
